Patent US4512986A, “Progrestationally active steroids” (priority 1983, dated 1985)
Several values for one entry are separate records, joined by “and”; a condition that tells them apart may be missing. Identical values can stand only once. Entries after “also recorded” stand apart in the source; their conditions may differ.

Key:
[1] = tested on: estrous cycle of rats; assay: Suppression of estrous cycles in rats; assay type: in vivo, rat; settings: sc, 10 days
Experimental: A control group was treated in parallel with 0.2 ml peanut oil per day. Treatment commenced at metestrus and vaginal smears were taken each morning during the 10-day treatment period and for 16 to 18 days thereafter.

[2] = target: T1, Cytosol Progesterone Receptor of the Estrogen-primed Immature Rabbit Uterus (Oryctolagus cuniculus, UniProt P06186); assay: Relative binding affinity for progesterone receptor (competition with 3H-progesterone); set-up: species or system rabbit (New Zealand White)
T1 construct: cytosol progesterone receptor of the estrogen-primed immature rabbit uterus; tissue Dutchland Laboratories, Inc., Denver, Pa (animals); host or cells: uterus cytosol of estradiol-treated immature female New Zealand White rabbits
T1 sequence (P06186 1-930): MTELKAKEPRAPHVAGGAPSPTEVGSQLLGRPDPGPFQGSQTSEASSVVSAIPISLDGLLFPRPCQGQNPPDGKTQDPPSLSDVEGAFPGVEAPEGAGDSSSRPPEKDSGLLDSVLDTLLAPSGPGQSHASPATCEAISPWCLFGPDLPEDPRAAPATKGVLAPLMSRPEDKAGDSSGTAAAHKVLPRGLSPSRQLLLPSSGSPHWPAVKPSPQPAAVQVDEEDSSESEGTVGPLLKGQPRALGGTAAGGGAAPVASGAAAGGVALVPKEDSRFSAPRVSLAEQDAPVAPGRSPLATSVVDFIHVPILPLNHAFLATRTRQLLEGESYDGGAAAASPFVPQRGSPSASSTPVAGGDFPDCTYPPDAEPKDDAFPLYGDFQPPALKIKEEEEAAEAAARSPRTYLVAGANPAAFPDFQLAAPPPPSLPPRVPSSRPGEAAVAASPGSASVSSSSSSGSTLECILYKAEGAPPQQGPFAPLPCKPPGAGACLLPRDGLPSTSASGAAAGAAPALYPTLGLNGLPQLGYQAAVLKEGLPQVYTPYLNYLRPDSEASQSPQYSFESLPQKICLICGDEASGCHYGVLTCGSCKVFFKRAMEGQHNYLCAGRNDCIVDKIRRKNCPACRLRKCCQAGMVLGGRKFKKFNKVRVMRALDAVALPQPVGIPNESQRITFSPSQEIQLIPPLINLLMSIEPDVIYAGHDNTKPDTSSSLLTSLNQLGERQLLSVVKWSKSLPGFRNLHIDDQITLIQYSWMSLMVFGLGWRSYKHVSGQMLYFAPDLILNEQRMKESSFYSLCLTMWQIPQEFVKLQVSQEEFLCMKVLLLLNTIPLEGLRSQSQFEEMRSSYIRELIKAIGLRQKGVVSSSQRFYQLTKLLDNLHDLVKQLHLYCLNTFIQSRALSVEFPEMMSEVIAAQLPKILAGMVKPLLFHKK

[3] = tested on: uterine endometrium of estrone-primed immature rabbits; assay: Clauberg assay (progestational activity, McPhail); assay type: in vivo, rabbit (New Zealand White); settings: for McPhail Index (0-4) (X ± S.D.): 0 none, 4 maximal

With `C#C[C@]1(C(C)=O)CC[C@H]2[C@@H]3CCC4=CC(=O)CC[C@]4(C)[C@H]3CC[C@@]21C` [17α-Ethynylprogesterone, 17α-ethynylprogesterone] the “estrous cycle during treatment, in words” value ([1]; 50 μg/day) was “continued regular four-day cycles during treatment”, the “estrous cycle during treatment, in words” value ([1]; 100 μg/day) was “estrous cycles were disrupted; also recorded: some degree of follicular development occurred, but that ovulation was inhibited during treatment” and the “estrous cycle during treatment, in words” value ([1]; 250 μg/day) was “estrous cycles were disrupted”. The “estrous cycle during treatment, in words” value ([1]; 500 μg/day) was “estrous cycles were disrupted; also recorded: follicular development and ovulation were effectively suppressed”, the “RBA, mean of assays (X±S.D.)” value ([2]; 16 to 18 hour incubation at 0° C., spurious value 11 excluded) was 189±55 and the RBA ([2]; Assay 1, 16-18 hour incubation, progesterone = 100, 5α-dihydro-17α-ethynyl: lot 1) was 156%. It also gave an RBA ([2]; Assay 2, 16-18 hour incubation, progesterone = 100, 5α-dihydro-17α-ethynyl: lot 1) of 267%, an RBA ([2]; Assay 3, 16-18 hour incubation, progesterone = 100, 5α-dihydro-17α-ethynyl: lot 1) of 144% and an RBA ([2]; two-hour incubation at 0° C.) of 352. For the same compound, the “progestational potency relative to subcutaneous progesterone, in words” value ([3]; compound given orally, progesterone sc) was “progestational activity equivalent to subcutaneous progesterone”, the “progestational potency relative to progesterone (sc)” value ([3]; compound given sc) was 13 times and the “Uterine Weight (X ± S.D.)” value ([3]; oral, 10 μg/rabbit daily) was 0.94 ± 0.09 g. The “McPhail Index (0-4) (X ± S.D.)” value ([3]; oral, 10 μg/rabbit daily) was 0.08 ± 0.11, the “Uterine Weight (X ± S.D.)” value ([3]; oral, 20 μg/rabbit daily) was 0.98 ± 0.18 g and the “McPhail Index (0-4) (X ± S.D.)” value ([3]; oral, 20 μg/rabbit daily) was 0.04 ± 0.06. The “Uterine Weight (X ± S.D.)” value ([3]; oral, 50 μg/rabbit daily) was 0.86 ± 0.02 g, the “McPhail Index (0-4) (X ± S.D.)” value ([3]; oral, 50 μg/rabbit daily) was 0.00 ± 0.00 and the “Uterine Weight (X ± S.D.)” value ([3]; oral, 100 μg/rabbit daily) was 1.79 ± 0.63 g and 1.13 ± 0.24 g. The “progestational response, in words” value ([3]; oral, 100 μg/rabbit/day) was “inactive; also recorded: near the oral threshold dose”, the “Uterine Weight (X ± S.D.)” value ([3]; oral, 200 μg/rabbit daily) was 1.67 ± 0.33 g and the “McPhail Index (0-4) (X ± S.D.)” value ([3]; oral, 200 μg/rabbit daily) was 1.40 ± 1.50. The “Uterine Weight (X ± S.D.)” value ([3]; oral, 400 μg/rabbit daily) was 1.70 ± 0.50 g, the “McPhail Index (0-4) (X ± S.D.)” value ([3]; oral, 400 μg/rabbit daily) was 1.80 ± 1.70 and the “progestational response, in words” value ([3]; oral, 200 and 400 μg/rabbit/day) was “partial progestational responses”. For the same compound, the “Uterine Weight (X ± S.D.)” value ([3]; sc, 2.5 μg/rabbit daily) was 0.90 ± 0.06 g, the “McPhail Index (0-4) (X ± S.D.)” value ([3]; sc, 2.5 μg/rabbit daily) was 0.17 ± 0.23 and the “progestational response, in words” value ([3]; sc, 2.5 μg/rabbit/day) was “inactive”. For the same compound, the “Uterine Weight (X ± S.D.)” value ([3]; sc, 5 μg/rabbit daily) was 1.63 ± 0.45 g, the “McPhail Index (0-4) (X ± S.D.)” value ([3]; sc, 5 μg/rabbit daily) was 1.50 ± 0.54 and the “progestational response, in words” value ([3]; sc, 5 μg/rabbit/day) was “partial progestational response”. The “Uterine Weight (X ± S.D.)” value ([3]; sc, 10 μg/rabbit daily) was 3.23 ± 0.83 g, the “McPhail Index (0-4) (X ± S.D.)” value ([3]; sc, 10 μg/rabbit daily) was 3.83 ± 0.12 and the “Uterine Weight (X ± S.D.)” value ([3]; sc, 20 μg/rabbit daily) was 4.41 ± 0.33 g. The “McPhail Index (0-4) (X ± S.D.)” value ([3]; sc, 20 μg/rabbit daily) was 4.00 ± 0.00, the “Uterine Weight (X ± S.D.)” value ([3]; sc, 50 μg/rabbit daily) was 5.54 ± 0.18 g and the “McPhail Index (0-4) (X ± S.D.)” value ([3]; sc, 50 μg/rabbit daily) was 4.0 ± 0.00. For the same compound, the “Uterine Weight (X ± S.D.)” value ([3]; sc, 100 μg/rabbit daily) was 4.19 ± 0.22 g, the “McPhail Index (0-4) (X ± S.D.)” value ([3]; sc, 100 μg/rabbit daily) was 4.0 ± 0.00 and the “Uterine Weight (X ± S.D.)” value ([3]; sc, 200 μg/rabbit daily) was 4.99 ± 0.89 g. The “McPhail Index (0-4) (X ± S.D.)” value ([3]; sc, 200 μg/rabbit daily) was 4.0 ± 0.00, the “Uterine Weight (X ± S.D.)” value ([3]; sc, 400 μg/rabbit daily) was 5.90 ± 1.75 g and the “McPhail Index (0-4) (X ± S.D.)” value ([3]; sc, 400 μg/rabbit daily) was 4.0 ± 0.00. For the same compound, the “progestational response, in words” value ([3]; sc, 10 and 20 μg/rabbit/day) was “maximal progestational responses” and the “progestational response, in words” value ([3]; sc, 50, 100, 200 and 400 μg/rabbit/day) was “full progestational responses”.
